Assay results taken from PubChem BioAssay (NCI).
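Five concentrations, 48 hours, 96-well plates. Definition used: TGI = concentration required for complete inhibition of growth.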

Experiments:
Test in all cases: NCI tumour cell line growth inhibition, 48 h
CAKI-1 renal = test system: CAKI-1 renal
NCI-H522 lung = test system: NCI-H522 lung
SR leukemia = test system: SR leukemia
A498 renal = test system: A498 renal
HOP-62 NSCLC = test system: HOP-62 NSCLC
KM12 colon = test system: KM12 colon
MDA-MB-231 breast = test system: MDA-MB-231 breast
SNB-75 CNS = test system: SNB-75 CNS
MDA-MB-435 = test system: MDA-MB-435
SNB-19 CNS = test system: SNB-19 CNS
NCI-H226 lung = test system: NCI-H226 lung
A549 NSCLC = test system: A549 NSCLC
SK-MEL-28 melanoma = test system: SK-MEL-28 melanoma
CCRF-CEM leukemia = test system: CCRF-CEM leukemia
HCC-2998 colon = test system: HCC-2998 colon
HCT-116 colon = test system: HCT-116 colon
ACHN renal = test system: ACHN renal
UACC-62 melanoma = test system: UACC-62 melanoma
UACC-257 melanoma = test system: UACC-257 melanoma
786-0 renal = test system: 786-0 renal
OVCAR-3 ovarian = test system: OVCAR-3 ovarian
MOLT-4 leukemia = test system: MOLT-4 leukemia
HL-60(TB) leukemia = test system: HL-60(TB) leukemia
T-47D breast = test system: T-47D breast
MCF7 breast = test system: MCF7 breast
SF-539 CNS = test system: SF-539 CNS
OVCAR-4 ovarian = test system: OVCAR-4 ovarian
NCI-H23 lung = test system: NCI-H23 lung
RPMI-8226 leukemia = test system: RPMI-8226 leukemia
EKVX NSCLC = test system: EKVX NSCLC
DU-145 prostate = test system: DU-145 prostate
COLO 205 colon = test system: COLO 205 colon
HCT-15 colon = test system: HCT-15 colon
K-562 leukemia = test system: K-562 leukemia
LOX IMVI melanoma = test system: LOX IMVI melanoma
U251 CNS = test system: U251 CNS
OVCAR-5 ovarian = test system: OVCAR-5 ovarian
TK-10 renal = test system: TK-10 renal
NCI/ADR-RES ovarian = test system: NCI/ADR-RES ovarian
M14 melanoma = test system: M14 melanoma
SK-MEL-5 melanoma = test system: SK-MEL-5 melanoma
HT29 colon = test system: HT29 colon
SK-MEL-2 melanoma = test system: SK-MEL-2 melanoma
IGROV1 ovarian = test system: IGROV1 ovarian
PC-3 prostate = test system: PC-3 prostate
SF-268 CNS = test system: SF-268 CNS
RXF 393 renal = test system: RXF 393 renal
UO-31 renal = test system: UO-31 renal
OVCAR-8 ovarian = test system: OVCAR-8 ovarian
HS 578T breast = test system: HS 578T breast
BT-549 breast = test system: BT-549 breast
SF-295 CNS = test system: SF-295 CNS
SK-OV-3 ovarian = test system: SK-OV-3 ovarian
MDA-N = test system: MDA-N
SW-620 colon = test system: SW-620 colon
SN12C renal = test system: SN12C renal
MALME-3M melanoma = test system: MALME-3M melanoma
HOP-92 NSCLC = test system: HOP-92 NSCLC
NCI-H460 lung = test system: NCI-H460 lung
DMS 273 small cell lung = test system: DMS 273 small cell lung
DLD-1 colon = test system: DLD-1 colon
SNB-78 CNS = test system: SNB-78 CNS
DMS 114 small cell lung = test system: DMS 114 small cell lung
HOP-18 NSCLC = test system: HOP-18 NSCLC
KM20L2 colon = test system: KM20L2 colon
LXFL 529 NSCLC = test system: LXFL 529 NSCLC

Measured: TGI

O=[N+]([O-])c1ccc(S(=O)(=O)N=Ic2ccccc2)cc1
> 100 µM: CAKI-1 renal | NCI-H522 lung | SR leukemia | A498 renal | HOP-62 NSCLC | KM12 colon | MDA-MB-231 breast | SNB-75 CNS | MDA-MB-435 | SNB-19 CNS | NCI-H226 lung | A549 NSCLC | SK-MEL-28 melanoma | CCRF-CEM leukemia | HCC-2998 colon | HCT-116 colon | ACHN renal | UACC-62 melanoma | UACC-257 melanoma | 786-0 renal | OVCAR-3 ovarian | MOLT-4 leukemia | HL-60(TB) leukemia | T-47D breast | MCF7 breast | SF-539 CNS | OVCAR-4 ovarian | NCI-H23 lung | RPMI-8226 leukemia | EKVX NSCLC | DU-145 prostate | COLO 205 colon | HCT-15 colon | K-562 leukemia | LOX IMVI melanoma | U251 CNS | OVCAR-5 ovarian | TK-10 renal | NCI/ADR-RES ovarian | M14 melanoma | SK-MEL-5 melanoma | HT29 colon | SK-MEL-2 melanoma | IGROV1 ovarian | PC-3 prostate | SF-268 CNS | RXF 393 renal | UO-31 renal | OVCAR-8 ovarian | HS 578T breast | BT-549 breast | SF-295 CNS | SK-OV-3 ovarian | MDA-N | SW-620 colon | SN12C renal | MALME-3M melanoma | HOP-92 NSCLC | NCI-H460 lung

Cc1[nH]c2ccccc2c1-c1cc(-c2cc(-c3c(C)[nH]c4ccccc34)on2)no1
> 100 µM: CAKI-1 renal | NCI-H522 lung | A498 renal | HOP-62 NSCLC | KM12 colon | MDA-MB-231 breast | SNB-19 CNS | NCI-H226 lung | A549 NSCLC | SK-MEL-28 melanoma | CCRF-CEM leukemia | HCC-2998 colon | HCT-116 colon | ACHN renal | UACC-62 melanoma | UACC-257 melanoma | 786-0 renal | OVCAR-3 ovarian | MOLT-4 leukemia | HL-60(TB) leukemia | T-47D breast | MCF7 breast | SF-539 CNS | OVCAR-4 ovarian | NCI-H23 lung | RPMI-8226 leukemia | EKVX NSCLC | DU-145 prostate | COLO 205 colon | HCT-15 colon | K-562 leukemia | LOX IMVI melanoma | U251 CNS | OVCAR-5 ovarian | TK-10 renal | NCI/ADR-RES ovarian | M14 melanoma | SK-MEL-5 melanoma | HT29 colon | SK-MEL-2 melanoma | IGROV1 ovarian | PC-3 prostate | SF-268 CNS | RXF 393 renal | UO-31 renal | OVCAR-8 ovarian | BT-549 breast | SF-295 CNS | SK-OV-3 ovarian | SW-620 colon | SN12C renal | MALME-3M melanoma | HOP-92 NSCLC | NCI-H460 lung
48.3 µM: MDA-N
80.6 µM: MDA-MB-435
66.8 µM: SNB-75 CNS
96.7 µM: SR leukemia
90.6 µM: HS 578T breast

COc1ccc(NC(=O)/C(N=O)=C(/C)O)cc1
36.8 µM: HCT-15 colon
53.5 µM: NCI-H460 lung
> 100 µM: CAKI-1 renal | SR leukemia | A498 renal | DMS 273 small cell lung | HOP-62 NSCLC | KM12 colon | DLD-1 colon | SNB-75 CNS | SNB-19 CNS | NCI-H226 lung | A549 NSCLC | SK-MEL-28 melanoma | CCRF-CEM leukemia | HCC-2998 colon | HCT-116 colon | ACHN renal | UACC-62 melanoma | UACC-257 melanoma | 786-0 renal | MOLT-4 leukemia | SNB-78 CNS | HL-60(TB) leukemia | SF-539 CNS | NCI-H23 lung | RPMI-8226 leukemia | EKVX NSCLC | DMS 114 small cell lung | HOP-18 NSCLC | K-562 leukemia | KM20L2 colon | U251 CNS | OVCAR-5 ovarian | TK-10 renal | M14 melanoma | SK-MEL-5 melanoma | HT29 colon | SK-MEL-2 melanoma | IGROV1 ovarian | LXFL 529 NSCLC | SF-268 CNS | RXF 393 renal | UO-31 renal | OVCAR-8 ovarian | SF-295 CNS | SK-OV-3 ovarian | SN12C renal | MALME-3M melanoma | HOP-92 NSCLC
47.9 µM: LOX IMVI melanoma
30 µM: SW-620 colon
